Assay [1] addresses T1, BACE1 (Homo sapiens, UniProt P56817). The assay can be described thus: In Vitro BACE Cell-based Assay (HEK cell assay): Aβ40 in conditioned medium of cells stably expressing Amyloid Precursor Protein, sandwich ELISA. The following applies: read-out: HEK cell assay; for IC50: Table III, IC50's in uM ranges. The gist of the method:
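HEK cells stably expressing APP were treated 24 h with compound in 10-point dose response starting at 100 or 10 μM (0.1% DMSO). Secreted Aβ40 quantified by sandwich ELISA (pAb40 capture, biotinylated 6E10 detection, europium time-resolved fluorescence), with IC50 derived from percent inhibition versus concentration.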
Background: ELISA stands for enzyme-linked immunosorbent assay.

In assay [2] the target is T1, BACE1. Kind of assay: In Vitro Enzymatic BACE FRET (Fluorescence Resonance Energy Transfer) Assay. The conditions noted are these: read-out: BACE1 FRET assay; for IC50: Table III, IC50's in uM ranges. The class given is biochemical. The gist of the method:
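Buffer: 0.05 M acetate, pH 4.2, 10% DMSO final, 100 uM genapol. Start: FRET substrate 50 nM. Incubation 1 h. Stop: Tris to neutral pH. Read: fluorescence.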

The mark [3] stands for this setting: HEK cell-based assay, Aβ40 in conditioned medium, IC50 class symbols.
The mark [4] stands for this setting: in vitro BACE FRET enzyme assay, IC50 class symbols.

pIC50: −log10 of the molar value.

T1 sequence (P56817 46-501, species assumed): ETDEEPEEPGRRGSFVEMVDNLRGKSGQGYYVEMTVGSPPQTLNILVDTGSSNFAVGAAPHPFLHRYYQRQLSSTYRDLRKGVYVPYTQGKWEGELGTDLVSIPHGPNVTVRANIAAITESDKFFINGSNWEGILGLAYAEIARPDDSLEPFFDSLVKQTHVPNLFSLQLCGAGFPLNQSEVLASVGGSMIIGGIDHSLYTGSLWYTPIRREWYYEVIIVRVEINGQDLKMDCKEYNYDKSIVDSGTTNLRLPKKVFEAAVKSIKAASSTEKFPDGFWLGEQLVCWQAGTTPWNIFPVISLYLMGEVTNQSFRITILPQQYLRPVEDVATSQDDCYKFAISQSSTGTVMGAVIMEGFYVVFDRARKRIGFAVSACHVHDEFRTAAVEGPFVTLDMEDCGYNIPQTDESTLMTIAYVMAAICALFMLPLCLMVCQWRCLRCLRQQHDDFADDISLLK

Regarding `CC(C)(C)C#Cc1ccc2c(c1)[C@@]1(COC(N)=N1)c1cc(C#CC(C)(C)C)cnc1O2` [compound 897], the pIC50 is 6.00 to 7.00 on BACE1 [1] (Table IV, class symbols) and above 7.00 on BACE1 [2] (Table IV, class symbols).

As to `CC(C)(C)COc1ccc2c(c1)[C@]1(COC(N)=N1)c1cc(-c3cccc4ncccc34)ccc1O2` [compound 916], the pIC50 is 5.30 to 6.00 at BACE1 [1] (Table IV, class symbols) and 6.00 to 7.00 on BACE1 [2] (Table IV, class symbols).

Regarding `CC(C)(C)COc1ccc2c(c1)[C@]1(COC(N)=N1)c1cc(C3CC4CCC3C4)ccc1O2` (stereo partly shown) [compound 700], the pIC50 was below 5.30 at BACE1 [1] and 6.00 to 7.00 on BACE1 [2].

`CC(C)(C)COc1ccc2c(n1)[C@@]1(COC(N)=N1)c1cc(-c3cncnc3)ccc1O2` [compound 732]: the pIC50 on BACE1 [1] and on BACE1 [2] was 5.30 to 6.00 each time.

On to `CC(=O)COc1ccc2c(c1)[C@@]1(COC(N)=N1)c1cc(-c3cccnc3)cnc1O2` [compound 864], for which the pIC50 was 6.00 to 7.00 at BACE1 [1] (Table IV, class symbols) and 6.00 to 7.00 at BACE1 [2] (Table IV, class symbols).

On to `Cc1cnc(F)c(-c2ccc3c(c2)[C@@]2(COC(N)=N2)c2cc(C4CCOCC4)ncc2O3)c1` [compound 332], for which the pIC50 at BACE1 [1] (setting [3]) and at BACE1 [2] (setting [4]) was above 7.00 in each case.

In the case of `NC1=N[C@@]2(CO1)c1cc(-c3cccnc3N3CCOCC3)ccc1Oc1cnc(N3CCOCC3)cc12` [compound 336], the pIC50 is 6.00 to 7.00 on BACE1 [1] (setting [3]) and above 7.00 on BACE1 [2] (setting [4]).

Turning to `Cn1cc(-c2ccc3c(c2)[C@]2(COC(N)=N2)c2cc(-c4cccnc4F)ccc2O3)cn1` [compound 642], the pIC50 is above 7.00 on BACE1 [1] (Table IV, class symbols) and above 7.00 at BACE1 [2] (Table IV, class symbols).

Turning to `CC(C)(C)COc1ccc2c(c1)[C@]1(COC(N)=N1)c1cc(-c3ncccn3)ccc1O2` [compound 885], the pIC50 on BACE1 [1] (Table IV, class symbols) is 5.30 to 6.00; at BACE1 [2] (Table IV, class symbols), 6.00 to 7.00.

In the case of `NC1=N[C@@]2(CO1)c1cc(-c3ccccc3F)ccc1Oc1ncc(N3CCOCC3)cc12` [compound 460], the pIC50 at BACE1 [1] (HEK cells) is 6.00 to 7.00; at BACE1 [2], above 7.00.

`COc1ccc2c(c1)[C@@]1(COC(N)=N1)c1c(ccc(-c3cncnc3)c1F)O2` [compound 816]: the pIC50 on BACE1 [1] (Table IV, class symbols) was below 5.30; on BACE1 [2] (Table IV, class symbols), below 5.30.

Regarding `NC1=N[C@@]2(CO1)c1cc(-c3cccnc3)ccc1Oc1ccc(N3CCOCC3)nc12` [compound 334], the pIC50 at BACE1 [1] (setting [3]) and on BACE1 [2] (setting [4]) was 6.00 to 7.00 throughout.

For `N#Cc1ccc(-c2ccc3c(c2)[C@]2(COC(N)=N2)c2cc(-c4cccnc4)ccc2O3)cc1` [compound 204], the IC50 on BACE1 [1] and on BACE1 [2] was below 0.1 µM each time.

As for `CC(C)(F)COc1cc2c(cc1F)Oc1ccc(-c3cncnc3)cc1[C@@]21COC(N)=N1` [compound 530], the pIC50 on BACE1 [1] (HEK cells) and at BACE1 [2] was above 7.00 each time.

On to `C[C@@H]1CN(c2cc(F)c3c(c2)[C@]2(COC(N)=N2)c2cc(-c4cccnc4)ccc2O3)C[C@H](C)O1` [compound 483], for which the pIC50 on BACE1 [1] (HEK cells) and at BACE1 [2] was above 7.00 in each case.

In the case of `CC1(COc2ccc3c(c2)[C@]2(COC(N)=N2)c2cc(-c4ccccc4F)cnc2O3)COC1` [compound 746], the results for the pIC50 on BACE1 [1] and on BACE1 [2] were 6.00 to 7.00 and above 7.00, respectively.

Consider `CCCOc1cc2c(cc1F)Oc1ccc(-c3ccc(F)nc3)cc1[C@@]21COC(N)=N1` [compound 920], for which the pIC50 on BACE1 [1] (Table IV, class symbols) was 6.00 to 7.00; at BACE1 [2] (Table IV, class symbols), above 7.00.

Consider `COc1ccc2c(c1)[C@]1(COC(N)=N1)c1cc(NC(=O)c3ccccc3)ccc1O2` [compound 616], for which the pIC50 at BACE1 [1] (Table IV, class symbols) was 5.30 to 6.00; on BACE1 [2] (Table IV, class symbols), 5.30 to 6.00.

On to `COC(=O)/C=C/c1ccc2c(c1)[C@@]1(COC(N)=N1)c1cc(Br)ccc1O2` [compound 950], for which the figures for the pIC50 at BACE1 [1] and at BACE1 [2] were below 5.30 and 5.30 to 6.00, respectively.

Consider `COC(C)(C)C#Cc1ccc2c(c1)C1(COC(N)=N1)c1cc(C#CC(C)(C)OC)ccc1O2` [Example 119, 2′,7′-bis(3-methoxy-3-methylbut-1-ynyl)-5H-spiro[oxazole-4,9′-xanthen]-2-amine], for which the IC50 at BACE1 [1] and at BACE1 [2] was 0.1 to 1 µM each time.

For the compound `Cc1cncc(-c2ccc3c(c2)[C@@]2(COC(N)=N2)c2cc(C4=CCOCC4)ncc2O3)c1` [compound 326], the pIC50 on BACE1 [1] (setting [3]) and at BACE1 [2] (setting [4]) was above 7.00 each time.

Regarding `NC1=NC2(CO1)c1cc(-c3cccnc3)ccc1Oc1c2cc(-c2cccnc2)nc1F` (stereo not shown) [compound 301, 1-fluoro-3,7-di(pyridin-3-yl)-5′H-spiro[chromeno[2,3-c]pyridine-5,4′-oxazol]-2′-amine], the pIC50 at BACE1 [1] (setting [3]) and on BACE1 [2] (setting [4]) was above 7.00 throughout.

For the compound `CC(C)(C#N)COc1ccc2c(c1)[C@]1(COC(N)=N1)c1cc(-c3cccnc3)cnc1O2` [compound 168], the IC50 at BACE1 [1] and on BACE1 [2] was below 0.1 µM throughout.

On to `CC(C)(C)C#Cc1ccc2c(c1)[C@]1(COC(N)=N1)c1cc(-c3ccc(F)nc3)ccc1O2` [147a], for which the IC50 on BACE1 [1] was 0.1 to 1 µM; at BACE1 [2], below 0.1 µM.

For the compound `Cn1cc(-c2cc3c(cn2)Oc2ccc(-c4cccnc4F)cc2[C@@]32COC(N)=N2)cn1` [compound 333], the pIC50 on BACE1 [1] (setting [3]) and on BACE1 [2] (setting [4]) was above 7.00 in each case.

Consider `NC1=N[C@@]2(CO1)c1cc(-c3ccc(F)cc3)ccc1Oc1ncc(C3=CCOCC3)cc12` [compound 583], for which the pIC50 at BACE1 [1] (Table IV, class symbols) was above 7.00; on BACE1 [2] (Table IV, class symbols), above 7.00.

Take `NC1=N[C@@]2(CO1)c1cc(-c3cncnc3)ccc1Oc1ccc([C@@H]3CCOC3)cc12` [compound 420]: the pIC50 was 6.00 to 7.00 at BACE1 [1] (HEK cells) and above 7.00 on BACE1 [2].

With `CC(C)(C)COc1ccc2c(c1)[C@]1(COC(N)=N1)c1cc(-c3cccnc3F)cnc1O2` [compound 871], the pIC50 on BACE1 [1] (Table IV, class symbols) is 6.00 to 7.00; on BACE1 [2] (Table IV, class symbols), above 7.00.

Consider `COC(=O)/C=C/c1ccc2c(c1)[C@@]1(COC(N)=N1)c1cc(-c3cccnc3)ccc1O2` [compound 918], for which the pIC50 on BACE1 [1] (Table IV, class symbols) was 6.00 to 7.00; on BACE1 [2] (Table IV, class symbols) it was 6.00 to 7.00.

For `CC(C)(C)COc1ccc2c(c1)C1(COC(N)=N1)c1cc(NC(=O)c3ccc(Cl)cn3)ccc1O2` (stereo not shown) [compound 522], the pIC50 at BACE1 [1] (HEK cells) and at BACE1 [2] was above 7.00 in each case.

On to `CC(C)(C)COc1ccc2c(c1)[C@]1(COC(N)=N1)c1cc(-c3cnccn3)ccc1O2` [Example 131, (S)-2′-(neopentyloxy)-7′-(pyrazin-2-yl)-5H-spiro[oxazole-4,9′-xanthen]-2-amine], for which the IC50 at BACE1 [1] and on BACE1 [2] was below 0.1 µM in each case.

For the compound `C[C@](O)(C#Cc1ccc2c(c1)[C@]1(COC(N)=N1)c1cc(-c3cccnc3)ccc1O2)C(F)(F)F` [compound 698], the pIC50 on BACE1 [1] and at BACE1 [2] was above 7.00 each time.

With `NC1=N[C@@]2(CO1)c1ccccc1Oc1ccc(-c3cc(F)cnc3Cl)cc12` [compound 619], the pIC50 on BACE1 [1] (Table IV, class symbols) was 6.00 to 7.00; at BACE1 [2] (Table IV, class symbols) it was 5.30 to 6.00.

With `COC1CN(c2cnc3c(c2)[C@]2(COC(N)=N2)c2cc(-c4cc(F)ccc4F)ccc2O3)C1` [compound 456], the pIC50 on BACE1 [1] (HEK cells) and at BACE1 [2] was above 7.00 in each case.

As for `CC1(C)CC(c2ccc3c(c2)[C@]2(COC(N)=N2)c2cc(-c4cncnc4)ccc2O3)=CCO1` [compound 688], the pIC50 at BACE1 [1] and on BACE1 [2] was above 7.00 each time.

With `NC1=N[C@]2(CO1)c1cc(Br)ccc1Oc1ncccc12` [compound 600], the pIC50 is below 5.30 on BACE1 [1] (Table IV, class symbols) and below 5.30 on BACE1 [2] (Table IV, class symbols).

Consider `CC(C)(C)/C=C/c1cnc2c(c1)[C@]1(COC(N)=N1)c1cc(-c3cccnc3F)ccc1O2` [compound 380], for which the pIC50 on BACE1 [1] (setting [3]) and on BACE1 [2] (setting [4]) was above 7.00 throughout.

As to `COC(C)(C)C#Cc1ccc2c(c1)[C@@]1(COC(N)=N1)c1cc(C#CC(C)(C)OC)cnc1O2` [compound 934], the pIC50 on BACE1 [1] and on BACE1 [2] was above 7.00 in each case.

As to `CC1(COc2ccc3c(c2)[C@@]2(COC(N)=N2)c2cc(-c4cncnc4)cc(F)c2O3)COC1` [compound 795], the pIC50 on BACE1 [1] (Table IV, class symbols) is above 7.00; at BACE1 [2] (Table IV, class symbols), above 7.00.

Regarding `CC(C)(C)C#Cc1ccc2c(c1)[C@@]1(COC(N)=N1)c1cc(-c3ccc(F)nc3)ccc1O2` [147b], the IC50 at BACE1 [1] was 0.1 to 1 µM; at BACE1 [2] it was below 0.1 µM.

Regarding `COc1cnc2c(c1)[C@@]1(COC(N)=N1)c1cc(Br)ccc1O2` [compound 543], the pIC50 is below 5.30 on BACE1 [1] (Table IV, class symbols) and below 5.30 at BACE1 [2] (Table IV, class symbols).

As for `NC1=N[C@@]2(CO1)c1cc(-c3cncnc3)ccc1Oc1c(F)cc(OCC3CC3(F)F)cc12` (stereo partly shown) [compound 507], the pIC50 at BACE1 [1] (HEK cells) and at BACE1 [2] was above 7.00 in each case.

With `COc1ccc(F)c(-c2ccc3c(c2)C2(COC(N)=N2)c2ccc(C)cc2O3)c1` (stereo not shown) [Example 19, 2′-(2-fluoro-5-methoxyphenyl)-6′-methylspiro[1,3-oxazole-4,9′-xanthen]-2-amine], the pIC50 at BACE1 [1] (Table 1, Aβ40, 24 h incubation) is 6.00 to 7.00; at BACE1 [2] (Table 1), 5.30 to 6.00.

On to `CC(C)(C)C#Cc1cc2c(cn1)Oc1ccc(-c3cccnc3)cc1[C@@]21COC(N)=N1` [compound 845], for which the pIC50 at BACE1 [1] (Table IV, class symbols) was above 7.00; on BACE1 [2] (Table IV, class symbols), above 7.00.

As for `NC1=N[C@@]2(CO1)c1cc(C(=O)N3CCCC3)ccc1Oc1ccc(-c3cccnc3)cc12` [compound 872], the pIC50 at BACE1 [1] (Table IV, class symbols) is 6.00 to 7.00; on BACE1 [2] (Table IV, class symbols), 6.00 to 7.00.

In the case of `NC1=N[C@@]2(CO1)c1cc(-c3ccccc3)ccc1Oc1ncc(N3C[C@@H]4C[C@H]3CO4)cc12` [compound 454], the pIC50 on BACE1 [1] (HEK cells) and on BACE1 [2] was above 7.00 in each case.

For `NC1=N[C@@]2(CO1)c1cc(-c3cccnc3)ccc1Oc1ccc(-c3cccnc3)nc12` [compound 989], the pIC50 at BACE1 [1] and on BACE1 [2] was 6.00 to 7.00 in each case.

The values above are taken from patent publication US8426447B2, “Spiro-tricyclic ring compounds as beta-secretase modulators and methods of use” (Amgen Inc., priority 2008, dated 2013).
